Marks after values point to notes of the source that are not given here.
Test: Biodistribution studies in rats
Format: in vivo, Wistar rats
Conditions: male rats
Method: [^123I]-1 (SA ≥ 37 MBq/nmol) was received after radiolabelling in an isotonic acetate (9% EtOH) buffer (pH 4.8). The solution was passed through a membrane filter (0.2 μm) and was diluted to the proper concentrations. Male Wistar rats (approximately 250 g body weight, obtained from Harlan/Charles River, Zeist, Netherlands) received an intravenous injection in the tail vein of approximately 3.7 MBq/0.4 mL buffer of [^123I]-1 under O2/CO2 anaesthesia. Distribution to the tissue was measured 15 min, 30 min, and 1, 2, 3, 4, and 24 h after the injection to determine the time course of uptake in several organs, including the brain. Four rats were killed at each time point via bleeding by heart puncture (to minimize contribution of blood activity) under O2/CO2 anaesthesia followed by cervical dislocation. Brain regions (cerebellum, frontal and prefrontal cortex, olfactory bulbs, pituitary, medulla with pons, midbrain, striatum, hypothalamus, hippocampus, and thalamus) and various peripheral tissues (heart, lung, liver, spleen, kidney, muscle, fat, and thymus) were quickly excised and weighted. The activity of [^123I] was assayed in a gamma counter, and data was corrected for decay and the amount of radioactivity was presented as percentage of the injected dose, multiplied by the body weight in kilograms, per gram tissue or blood. Selective uptake in the striatum was determined by calculating the ratio of radioactivity in the striatum in relation to that in the cerebellum, since the density of dopamine D2/3 receptor is negligible in this brain area in rats.

- 123I radioactivity, Fat (3 h after i.v. injection): 0.337 ± 0.065 %ID × kg/g
- 123I radioactivity, Fat (4 h after i.v. injection): 0.174 ± 0.056 %ID × kg/g
- 123I radioactivity, Fat (24 h after i.v. injection): 0.016 ± 0.005 %ID × kg/g
- 123I radioactivity, Frontal cortex (15 min after i.v. injection): 2.567 ± 1.933 %ID × kg/g
- 123I radioactivity, Frontal cortex (30 min after i.v. injection): 2.329 ± 0.904 %ID × kg/g
- 123I radioactivity, Frontal cortex (1 h after i.v. injection): 0.722 ± 0.061 %ID × kg/g
- 123I radioactivity, Frontal cortex (2 h after i.v. injection): 0.223 ± 0.028 %ID × kg/g
- 123I radioactivity, Frontal cortex (3 h after i.v. injection): 0.232 ± 0.095 %ID × kg/g
- 123I radioactivity, Frontal cortex (4 h after i.v. injection): 0.109 ± 0.057 %ID × kg/g
- 123I radioactivity, Frontal cortex (24 h after i.v. injection): 0.024 ± 0.002 %ID × kg/g
- 123I radioactivity, Hippocampus (15 min after i.v. injection): 0.826 ± 0.475 %ID × kg/g
- 123I radioactivity, Hippocampus (30 min after i.v. injection): 2.155 ± 0.675 %ID × kg/g
- 123I radioactivity, Hippocampus (1 h after i.v. injection): 0.866 ± 0.089 %ID × kg/g
- 123I radioactivity, Hippocampus (2 h after i.v. injection): 0.255 ± 0.040 %ID × kg/g
- 123I radioactivity, Hippocampus (3 h after i.v. injection): 0.230 ± 0.085 %ID × kg/g
- 123I radioactivity, Hippocampus (4 h after i.v. injection): 0.093 ± 0.059 %ID × kg/g
- 123I radioactivity, Hippocampus (24 h after i.v. injection): 0.014 ± 0.001 %ID × kg/g
- 123I radioactivity, Hypothalamus (15 min after i.v. injection): 1.335 ± 0.766 %ID × kg/g
- 123I radioactivity, Hypothalamus (30 min after i.v. injection): 1.699 ± 0.526 %ID × kg/g
- 123I radioactivity, Hypothalamus (1 h after i.v. injection): 0.747 ± 0.111 %ID × kg/g
- 123I radioactivity, Hypothalamus (2 h after i.v. injection): 0.218 ± 0.036 %ID × kg/g
- 123I radioactivity, Hypothalamus (3 h after i.v. injection): 0.233 ± 0.070 %ID × kg/g
- 123I radioactivity, Hypothalamus (4 h after i.v. injection): 0.114 ± 0.051 %ID × kg/g
- 123I radioactivity, Hypothalamus (24 h after i.v. injection): 0.027 ± 0.005 %ID × kg/g
- 123I radioactivity, Kidney (15 min after i.v. injection): 1.618 ± 0.774 %ID × kg/g
- 123I radioactivity, Kidney (30 min after i.v. injection): 1.735 ± 0.353 %ID × kg/g
- 123I radioactivity, Kidney (1 h after i.v. injection): 1.770 ± 0.302 %ID × kg/g
- 123I radioactivity, Kidney (2 h after i.v. injection): 1.081 ± 0.154 %ID × kg/g
- 123I radioactivity, Kidney (3 h after i.v. injection): 1.336 ± 0.175 %ID × kg/g
- 123I radioactivity, Kidney (4 h after i.v. injection): 1.005 ± 0.397 %ID × kg/g
- 123I radioactivity, Kidney (24 h after i.v. injection): 0.150 ± 0.026 %ID × kg/g
- 123I radioactivity, Midbrain (15 min after i.v. injection): 3.566 ± 4.660 %ID × kg/g
- 123I radioactivity, Midbrain (30 min after i.v. injection): 1.715 ± 0.577 %ID × kg/g
- 123I radioactivity, Midbrain (1 h after i.v. injection): 0.754 ± 0.040 %ID × kg/g
- 123I radioactivity, Midbrain (2 h after i.v. injection): 0.229 ± 0.046 %ID × kg/g
- 123I radioactivity, Midbrain (3 h after i.v. injection): 0.214 ± 0.062 %ID × kg/g
- 123I radioactivity, Midbrain (4 h after i.v. injection): 0.098 ± 0.059 %ID × kg/g
- 123I radioactivity, Midbrain (24 h after i.v. injection): 0.020 ± 0.003 %ID × kg/g
- 123I radioactivity, Muscle (15 min after i.v. injection): 0.412 ± 0.466 %ID × kg/g
- 123I radioactivity, Muscle (30 min after i.v. injection): 0.363 ± 0.049 %ID × kg/g
- 123I radioactivity, Olfactory b. (15 min after i.v. injection): 0.445 ± 0.439 %ID × kg/g
- 123I radioactivity, Olfactory b. (30 min after i.v. injection): 1.325 ± 0.402 %ID × kg/g
- 123I radioactivity, Olfactory b. (1 h after i.v. injection): 0.631 ± 0.036 %ID × kg/g
- 123I radioactivity, Olfactory b. (2 h after i.v. injection): 0.218 ± 0.025 %ID × kg/g
- 123I radioactivity, Olfactory b. (3 h after i.v. injection): 0.234 ± 0.087 %ID × kg/g
- 123I radioactivity, Olfactory b. (4 h after i.v. injection): 0.112 ± 0.043 %ID × kg/g
- 123I radioactivity, Olfactory b. (24 h after i.v. injection): 0.020 ± 0.001 %ID × kg/g
- 123I radioactivity, Pituitary (15 min after i.v. injection, only 1 sample): 1.401^* %ID × kg/g
- 123I radioactivity, Pituitary (30 min after i.v. injection): 3.367 ± 1.033 %ID × kg/g
- 123I radioactivity, Pituitary (1 h after i.v. injection): 1.561 ± 0.538 %ID × kg/g
- 123I radioactivity, Pituitary (2 h after i.v. injection): 0.918 ± 0.632 %ID × kg/g
- 123I radioactivity, Pituitary (3 h after i.v. injection): 0.548 ± 0.149 %ID × kg/g
- 123I radioactivity, Pituitary (4 h after i.v. injection): 0.307 ± 0.056 %ID × kg/g
- 123I radioactivity, Pituitary (24 h after i.v. injection): 0.082 ± 0.006 %ID × kg/g
- 123I radioactivity, Pons/medulla (15 min after i.v. injection): 1.188 ± 0.587 %ID × kg/g
- 123I radioactivity, Pons/medulla (30 min after i.v. injection): 1.486 ± 0.274 %ID × kg/g
- 123I radioactivity, Pons/medulla (1 h after i.v. injection): 0.761 ± 0.040 %ID × kg/g
- 123I radioactivity, Pons/medulla (2 h after i.v. injection): 0.237 ± 0.045 %ID × kg/g
- 123I radioactivity, Pons/medulla (3 h after i.v. injection): 0.229 ± 0.066 %ID × kg/g
- 123I radioactivity, Pons/medulla (4 h after i.v. injection): 0.106 ± 0.057 %ID × kg/g
- 123I radioactivity, Pons/medulla (24 h after i.v. injection): 0.017 ± 0.001 %ID × kg/g
- 123I radioactivity, Spleen (15 min after i.v. injection): 2.428 ± 1.971 %ID × kg/g
- 123I radioactivity, Spleen (30 min after i.v. injection): 1.270 ± 0.282 %ID × kg/g
- 123I radioactivity, Spleen (1 h after i.v. injection): 0.749 ± 0.093 %ID × kg/g
- 123I radioactivity, Spleen (2 h after i.v. injection): 0.266 ± 0.047 %ID × kg/g
- 123I radioactivity, Spleen (3 h after i.v. injection): 0.284 ± 0.092 %ID × kg/g
- 123I radioactivity, Spleen (4 h after i.v. injection): 0.166 ± 0.087 %ID × kg/g
- 123I radioactivity, Spleen (24 h after i.v. injection): 0.022 ± 0.003 %ID × kg/g
- 123I radioactivity, Striatum (15 min after i.v. injection): 1.231 ± 1.299 %ID × kg/g
- 123I radioactivity, Striatum (30 min after i.v. injection): 1.947 ± 0.666 %ID × kg/g
- 123I radioactivity, Striatum (1 h after i.v. injection): 0.779 ± 0.037 %ID × kg/g
- 123I radioactivity, Striatum (2 h after i.v. injection): 0.226 ± 0.034 %ID × kg/g
- 123I radioactivity, Striatum (3 h after i.v. injection): 0.232 ± 0.065 %ID × kg/g
- 123I radioactivity, Striatum (4 h after i.v. injection): 0.101 ± 0.051 %ID × kg/g
- 123I radioactivity, Striatum (24 h after i.v. injection): 0.027 ± 0.010 %ID × kg/g
- 123I radioactivity, Thalamus (15 min after i.v. injection): 1.556 ± 1.015 %ID × kg/g
- 123I radioactivity, Thalamus (30 min after i.v. injection): 1.978 ± 0.618 %ID × kg/g
- 123I radioactivity, Thalamus (1 h after i.v. injection): 0.779 ± 0.049 %ID × kg/g
- 123I radioactivity, Thalamus (2 h after i.v. injection): 0.234 ± 0.037 %ID × kg/g
- 123I radioactivity, Thalamus (3 h after i.v. injection): 0.279 ± 0.091 %ID × kg/g
- 123I radioactivity, Thalamus (4 h after i.v. injection): 0.114 ± 0.047 %ID × kg/g
- 123I radioactivity, Thalamus (24 h after i.v. injection): 0.033 ± 0.006 %ID × kg/g
SMILES: Oc1ccc2c(c1)O[C@@H](CNCc1ccc([123I])cc1)CC2 [[^123I]-1]

From PMC4291083, “Ex Vivo Characterization of a Novel Iodine-123-Labelled Aminomethylchroman as a Potential Agonist Ligand for SPECT Imaging of Dopamine D2/3 Receptors” (International Journal of Molecular Imaging, 2014)
